Patent US11384060B2, “Amide compounds and use thereof” (ALPHALA CO., LTD., priority 2017, dated 2022)
Read-outs that look alike come from different tables or passages of the source.

Tests used:
[1] = molecular target: T1, glucagon receptor (GCGR) overexpressed CHO-K1 cells or human primary hepatocytes (Homo sapiens, UniProt P47871); experiment: Glucagon cAMP inhibition assay (Cisbio cAMP Dynamic 2 HTRF); format: cell-based
T1 construct: expressed in transfected cells; host or cells: GCGR overexpressed CHO-K1 cells or human primary hepatocytes (endogenous receptor)
T1 sequence (P47871 26-477): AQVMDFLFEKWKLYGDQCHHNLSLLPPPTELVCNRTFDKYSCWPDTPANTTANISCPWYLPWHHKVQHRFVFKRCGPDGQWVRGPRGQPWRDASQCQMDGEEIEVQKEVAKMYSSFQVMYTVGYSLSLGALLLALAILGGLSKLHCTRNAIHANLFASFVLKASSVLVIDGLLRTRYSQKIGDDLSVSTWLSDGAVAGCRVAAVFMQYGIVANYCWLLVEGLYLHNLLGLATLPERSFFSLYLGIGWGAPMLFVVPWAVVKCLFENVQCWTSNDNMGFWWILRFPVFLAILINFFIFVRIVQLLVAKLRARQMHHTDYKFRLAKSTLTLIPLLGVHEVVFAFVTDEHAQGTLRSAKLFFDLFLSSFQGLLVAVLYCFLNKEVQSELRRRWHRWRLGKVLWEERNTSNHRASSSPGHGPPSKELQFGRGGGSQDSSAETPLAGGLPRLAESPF
In short: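 GCGR-overexpressing CHO-K1 cells or human primary hepatocytes in HBSS with 0.1% BSA and 800 nM IBMX, pre-incubated 30 min with serially diluted compounds (1% DMSO final), then stimulated 30 min at room temperature with glucagon at its EC50. cAMP measured by HTRF after 60 min lysis; IC50 by non-linear regression.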

glucagon receptor (GCGR) = molecular target: T2, glucagon receptor (GCGR) (Homo sapiens, UniProt P47871); experiment: I125-glucagon binding assay (competition, GCGR membrane fractions)
T2 construct: expressed in transfected cells; host or cells: CHO-K1 cells overexpressing GCGR (membrane fractions)
T2 sequence (P47871 26-477): as above
In short: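 Membranes from CHO-K1 cells overexpressing GCGR, 7.5 μg/well in 50 mM Tris pH 7.4 with 0.5% BSA, were preincubated 5 min with serially diluted compounds, then given 0.0625 nM final I^125-glucagon for 30 min at 25° C. Bound label was filtered on PEI-coated GF/B and counted; IC50 by non-linear regression.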

[2] = inhibition of glucagon (EC50 concentration) induced cAMP production
[3] = competition with I125-glucagon 0.0625 nM, membrane fractions of GCGR overexpressed CHO-K1 cells

IC50 cAMP [1]	IC50 (glucagon receptor (GCGR))	IC50 cAMP [1, 2]	IC50 (glucagon receptor (GCGR); [3])	Compound
1403 nM	201 nM			CC(C)(C)c1ccc(-c2nnc([C@H](Cc3ccc(-c4cc5ccccc5o4)cc3)Nc3ccc(C(=O)NCCC(=O)O)cc3)o2)cc1 [Compound 20-1, (S)-3-(4-((2-(4-(benzofuran-2-yl)phenyl)-1-(5-(4-(tert-butyl)phenyl)-1,3,4-oxadiazol-2-yl)ethyl)amino)benzamido)propanoic Acid]
22191 nM	974 nM			CCC(C)[C@H](Nc1ccc(C(=O)NCCC(=O)O)cc1)c1nnc(-c2oc3ccccc3c2C)o1 (stereo partly drawn) [Compound 20-2, 3-(4-(((1S)-2-methyl-1-(5-(3-methylbenzofuran-2-yl)-1,3,4-oxadiazol-2-yl)butyl)amino)benzamido)propanoic Acid]
9163 nM	801 nM			CCC(C)[C@H](Nc1ccc(C(=O)NCCC(=O)O)cc1)c1nnc(-c2ccc(C(C)(C)C)cc2)o1 (stereo partly drawn) [Compound 20-3, 3-(4-(((1S)-1-(5-(4-(tert-butyl)phenyl)-1,3,4-oxadiazol-2-yl)-2-methylbutyl)amino)benzamido)propanoic Acid]
4853 nM	1040 nM			CC(C)[C@H](Nc1ccc(C(=O)NCCC(=O)O)cc1)c1nnc(-c2ccc(C(C)(C)C)cc2)o1 [Compound 20-4, (S)-3-(4-((1-(5-(4-(tert-butyl)phenyl)-1,3,4-oxadiazol-2-yl)-2-methylpropyl)amino)benzamido)propanoic Acid]
>30000 nM	4860 nM			Cc1cc(C)c(-c2ccc(C[C@H](Nc3ccc(C(=O)NCCC(=O)O)cc3)c3nnc(-c4ccc(C(C)(C)C)cc4)o3)cc2)c(C)c1 [Compound 20-5, (S)-3-(4-((1-(5-(4-(tert-butyl)phenyl)-1,3,4-oxadiazol-2-yl)-2-(2′,4′,6′-trimethyl-[1,1′-biphenyl]-4-yl)ethyl)amino)benzamido)propanoic Acid]
>30000 nM	2680 nM			Cc1c(-c2nnc([C@H](Cc3ccc(-c4ccc(C(F)(F)F)cc4)cc3)Nc3ccc(C(=O)NCCC(=O)O)cc3)o2)oc2ccccc12 [Compound 20-6, (S)-3-(4-((1-(5-(3-methylbenzofuran-2-yl)-1,3,4-oxadiazol-2-yl)-2-(4′-(trifluoromethyl)-[1,1′-biphenyl]-4-yl)ethyl)amino)benzamido)propanoic Acid]
>30000 nM	> 30000 nM			Cc1c(-c2nnc([C@H](Cc3ccc(-c4ccc(C(F)(F)F)cc4)cc3)Nc3ccc(C(=O)NCCS(=O)(=O)O)cc3)o2)oc2ccccc12 [Compound 20-7, (S)-2-(4-((1-(5-(3-methylbenzofuran-2-yl)-1,3,4-oxadiazol-2-yl)-2-(4′-(trifluoromethyl)-[1,1′-biphenyl]-4-yl)ethyl)amino)benzamido)ethane-1-sulfonic Acid]
		170.4 nM	803 nM	CCCC[C@@H](Cc1noc(-c2ccc(C(C)(C)C)cc2)n1)Nc1ccc(C(=O)NCCC(=O)O)cc1 [Compound 21-1, (S)-3-(4-((1-(5-(4-(tert-butyl)phenyl)-1,2,4-oxadiazol-3-yl)hexan-2-yl)amino)benzamido)propanoic Acid]
		1242 nM	637 nM	CCC(C)[C@@H](Cc1noc(-c2ccc(C(C)(C)C)cc2)n1)Nc1ccc(C(=O)NCCC(=O)O)cc1 (stereo partly drawn) [Compound 21-2, 3-(4-(((2R)-1-(5-(4-(tert-butyl)phenyl)-1,2,4-oxadiazol-3-yl)-3-methylpentan-2-yl)amino)benzamido)propanoic Acid]
		5436 nM	1130 nM	CC(C)[C@@H](Cc1noc(-c2ccc(C(C)(C)C)cc2)n1)Nc1ccc(C(=O)NCCC(=O)O)cc1 [Compound 21-3, (R)-3-(4-((1-(5-(4-(tert-butyl)phenyl)-1,2,4-oxadiazol-3-yl)-3-methylbutan-2-yl)amino)benzamido)propanoic Acid]
>30000 nM	62 nM			CC[C@H](C)[C@@H](COc1nnc(-c2ccc(C(F)(F)F)cc2F)o1)Nc1ccc(C(=O)NCCC(=O)O)cc1 [Compound 22-1, 3-(4-(((2S,3S)-1-((5-(2-fluoro-4-(trifluoromethyl)phenyl)-1,3,4-oxadiazol-2-yl)oxy)-3-methylpentan-2-yl)amino)benzamido)propanoic Acid]
>30000 nM	1430 nM			CCCC[C@@H](COc1nnc(-c2ccc(OC(F)(F)F)cc2)o1)Nc1ccc(C(=O)NCCC(=O)O)cc1 [Compound 22-2, (S)-3-(4-((1-((5-(4-(trifluoromethoxy)phenyl)-1,3,4-oxadiazol-2-yl)oxy)hexan-2-yl)amino)benzamido)propanoic Acid]
>30000 nM	13600 nM			CCCC[C@@H](COc1nnc(-c2ccc(C(F)(F)F)cc2F)o1)Nc1ccc(C(=O)NCCC(=O)O)cc1 [Compound 22-3, (S)-3-(4-((1-((5-(2-fluoro-4-(trifluoromethyl)phenyl)-1,3,4-oxadiazol-2-yl)oxy)hexan-2-yl)amino)benzamido)propanoic Acid]

Compound	IC50 cAMP [1]	IC50 (glucagon receptor (GCGR))	IC50 cAMP [1, 2]	IC50 (glucagon receptor (GCGR); [3])
CC(C)COC[C@H](Cc1ccc(-c2cccc(C(F)(F)F)c2)cc1)Nc1ccc(C(=O)NCCC(=O)O)cc1 [Compound 19-28, (S)-3-(4-((1-isobutoxy-3-(3′-(trifluoromethyl)-[1,1′-biphenyl]-4-yl)propan-2-yl)amino)benzamido)propanoic Acid]	726 nM	872 nM		
CC(C)COC[C@H](Cc1ccc(-c2ccccc2C(F)(F)F)cc1)Nc1ccc(C(=O)NCCC(=O)O)cc1 [Compound 19-29, (S)-3-(4-((1-isobutoxy-3-(2′-(trifluoromethyl)-[1,1′-biphenyl]-4-yl)propan-2-yl)amino)benzamido)propanoic Acid]	871 nM	2120 nM		
CC(C)COC[C@H](Cc1ccc(-c2cccc(OC(F)(F)F)c2)cc1)Nc1ccc(C(=O)NCCC(=O)O)cc1 [Compound 19-30, (S)-3-(4-((1-isobutoxy-3-(3′-(trifluoromethoxy)-[1,1′-biphenyl]-4-yl)propan-2-yl)amino)benzamido)propanoic Acid]	1104 nM	548 nM		
CC(C)COC[C@H](Cc1ccc(-c2cc(F)c(F)c(F)c2)cc1)Nc1ccc(C(=O)NCCC(=O)O)cc1 [Compound 19-31, (S)-3-(4-((1-isobutoxy-3-(3′,4′,5′-trifluoro-[1,1′-biphenyl]-4-yl)propan-2-yl)amino)benzamido)propanoic Acid]	1341 nM	500 nM		
CC(C)COC[C@H](Cc1ccc(-c2cc3ccccc3o2)cc1)Nc1ccc(C(=O)NCCC(=O)O)cc1 [Compound 19-32, (S)-3-(4-((1-(4-(benzofuran-2-yl)phenyl)-3-isobutoxypropan-2-yl)amino)benzamido)propanoic Acid]	1017 nM	483 nM		
CC(C)COC[C@H](Cc1ccc(-c2ccc(OC(F)(F)F)cc2)cc1)Nc1ccc(C(=O)NCCC(=O)O)cc1 [Compound 19-33, (S)-3-(4-((1-isobutoxy-3-(4′-(trifluoromethoxy)-[1,1′-biphenyl]-4-yl)propan-2-yl)amino)benzamido)propanoic Acid]	472 nM	284 nM		
CC(C)COC[C@H](Cc1ccc(-c2ccc(C(F)(F)F)cc2)cc1)Nc1ccc(C(=O)NCCC(=O)O)cc1 [Compound 19-34, (S)-3-(4-((1-isobutoxy-3-(4′-(trifluoromethyl)-[1,1′-biphenyl]-4-yl)propan-2-yl)amino)benzamido)propanoic Acid]	487 nM	380 nM		
